Data published in PubChem BioAssay AID248 (DTP/NCI, 2004).
Several values for one entry are separate records, joined by “and”; a condition that tells them apart may be missing. Equal entries are not always repeated. Toxic doses and inconclusive results are not listed. No stated cut-off is given here; in the data, active means T/C of 150% or more; inactive means T/C below 125%.

Test system: L1210 leukemia ip in BDF1 mice, survival T/C
Experiment: NCI In Vivo Anticancer Drug Screen. Data for tumor model L1210 Leukemia (intraperitoneal) in B6D2F1 (BDF1) mice
Details: endpoint: mean survival time, higher = longer survival
Summary of the method: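 Antitumor effect is assessed in tumor-bearing animals. Survival in the compound arm is compared with a vehicle-dosed control arm and expressed as their quotient.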

[1] = dose: 100.0 mg/kg/injection, schedule: Q01DX009 (ip), vehicle: saline with Tween-80
[2] = dose: 200.0 mg/kg/injection, schedule: Q01DX009 (ip), vehicle: saline with Tween-80
[3] = dose: 400.0 mg/kg/injection, schedule: Q01DX009 (ip), vehicle: saline with Tween-80
[4] = dose: 100.0 mg/kg/injection, schedule: Q01DX001 (ip), vehicle: carboxymethylcellulose (CMC)
[5] = dose: 200.0 mg/kg/injection, schedule: Q01DX001 (ip), vehicle: carboxymethylcellulose (CMC)
[6] = dose: 400.0 mg/kg/injection, schedule: Q01DX001 (ip), vehicle: carboxymethylcellulose (CMC)

Measured: T/C

CCCCN=C(NCCCC)c1ccc(NC(=O)c2ccc(C(=O)Nc3ccc(C(=NCCCC)NCCCC)cc3)cc2)cc1
inactive: dose: 0.12 mg/kg/injection, schedule: Q01DX015 (ip), vehicle: methylcellulose (MC) 94 % of control | dose: 0.25 mg/kg/injection, schedule: Q01DX015 (ip), vehicle: methylcellulose (MC) 94 % of control | dose: 0.5 mg/kg/injection, schedule: Q01DX015 (ip), vehicle: methylcellulose (MC) 90 % of control | dose: 1.0 mg/kg/injection, schedule: Q01DX015 (ip), vehicle: methylcellulose (MC) 102 % of control | dose: 2.0 mg/kg/injection, schedule: Q01DX015 (ip), vehicle: methylcellulose (MC) 108 % of control | dose: 4.0 mg/kg/injection, schedule: Q01DX015 (ip), vehicle: methylcellulose (MC) 110 % of control | dose: 8.0 mg/kg/injection, schedule: Q01DX015 (ip), vehicle: methylcellulose (MC) 98 % of control

COC(=O)[C@@H]1C2C=CC(C2)[C@@H]1C(=O)OC
inactive: [1] 101 % of control | [2] 104 % of control | [3] 104 % of control

CC1OC2CC(=O)OC2C2=C1C(=O)c1c(O)c3c(c(O)c1C2=O)C1CC(O)C3(O)C(C)O1 (stereo not drawn)
inactive: dose: 0.01 mg/kg/injection, schedule: Q01DX Z (ip), vehicle: saline 112 % of control | dose: 0.03 mg/kg/injection, schedule: Q01DX Z (ip), vehicle: saline 98 % of control | dose: 0.05 mg/kg/injection, schedule: Q01DX Z (ip), vehicle: saline 90 % of control | dose: 0.1 mg/kg/injection, schedule: Q01DX Z (ip), vehicle: saline 95 % of control | dose: 0.2 mg/kg/injection, schedule: Q01DX Z (ip), vehicle: saline 95 % of control and 100 % of control | dose: 0.4 mg/kg/injection, schedule: Q01DX Z (ip), vehicle: saline 90 % of control | dose: 0.8 mg/kg/injection, schedule: Q01DX Z (ip), vehicle: saline 89 % of control | dose: 1.6 mg/kg/injection, schedule: Q01DX Z (ip), vehicle: saline 94 % of control | dose: 3.2 mg/kg/injection, schedule: Q01DX Z (ip), vehicle: saline 86 % of control | dose: 5.0 mg/kg/injection, schedule: Q01DX001 (ip), vehicle: saline 102 % of control | dose: 6.4 mg/kg/injection, schedule: Q01DX Z (ip), vehicle: saline 92 % of control | dose: 10.0 mg/kg/injection, schedule: Q01DX001 (ip), vehicle: saline 102 % of control | dose: 12.0 mg/kg/injection, schedule: Q01DX Z (ip), vehicle: saline 92 % of control | dose: 12.8 mg/kg/injection, schedule: Q01DX Z (ip), vehicle: saline 87 % of control | dose: 20.0 mg/kg/injection, schedule: Q01DX001 (ip), vehicle: saline 97 % of control | dose: 40.0 mg/kg/injection, schedule: Q01DX001 (ip), vehicle: saline 97 % of control

CCC1CN2C(=N1)c1ccccc1-c1cc([N+](=O)[O-])ccc12 (stereo not drawn)
inactive: dose: 100.0 mg/kg/injection, schedule: Q01DX009 (ip), vehicle: Klucel (hydroxypropylcellulose) (HPC) 101 % of control | dose: 100.0 mg/kg/injection, schedule: Q04DX003 (ip), vehicle: Klucel (hydroxypropylcellulose) (HPC) 99 % of control | dose: 200.0 mg/kg/injection, schedule: Q01DX009 (ip), vehicle: Klucel (hydroxypropylcellulose) (HPC) 104 % of control | dose: 200.0 mg/kg/injection, schedule: Q04DX003 (ip), vehicle: Klucel (hydroxypropylcellulose) (HPC) 106 % of control | dose: 400.0 mg/kg/injection, schedule: Q01DX009 (ip), vehicle: Klucel (hydroxypropylcellulose) (HPC) 95 % of control | dose: 400.0 mg/kg/injection, schedule: Q04DX003 (ip), vehicle: Klucel (hydroxypropylcellulose) (HPC) 97 % of control

COC(=O)c1cc(-c2ccc(Cl)cc2)nc2c(C)cc(C)cc12
inactive: [4] 92 % of control | [5] 101 % of control | [6] 89 % of control

O=C(N/N=C\c1ccc(Cl)cc1Cl)c1ccc(F)cc1
inactive: dose: 25.0 mg/kg/injection, schedule: Q01DX009 (ip), vehicle: saline with Tween-80 96 % of control | dose: 50.0 mg/kg/injection, schedule: Q01DX009 (ip), vehicle: saline with Tween-80 94 % of control | [1] 92 % of control

Cl[Si](Cc1ccccc1)(Cc1ccccc1)Cc1ccccc1
inactive: dose: 100.0 mg/kg/injection, schedule: Q01DX001 (ip), vehicle: saline 93 % of control | dose: 200.0 mg/kg/injection, schedule: Q01DX001 (ip), vehicle: saline 88 % of control | dose: 400.0 mg/kg/injection, schedule: Q01DX001 (ip), vehicle: saline 95 % of control

CCCCCCCNC(=O)Nc1cc([N+](=O)[O-])ccc1C
inactive: [1] 98 % of control | [2] 98 % of control | [3] 94 % of control

Oc1ccc2ccc(Cl)cc2c1
inactive: [4] 95 % of control | [5] 90 % of control | [6] 95 % of control

O=C1CCCC2=C1C(c1ccncc1)Nc1ccccc1N2 (stereo not drawn)
inactive: dose: 100.0 mg/kg/injection, schedule: Q04DX002 (ip), vehicle: Klucel (hydroxypropylcellulose) (HPC) 103 % of control | dose: 200.0 mg/kg/injection, schedule: Q04DX002 (ip), vehicle: Klucel (hydroxypropylcellulose) (HPC) 117 % of control | dose: 400.0 mg/kg/injection, schedule: Q04DX002 (ip), vehicle: Klucel (hydroxypropylcellulose) (HPC) 109 % of control

COC(=O)C[P+](c1ccccc1)(c1ccccc1)c1ccccc1
inactive: dose: 15.0 mg/kg/injection, schedule: Q01DX001 (ip), vehicle: saline 93 % of control | dose: 30.0 mg/kg/injection, schedule: Q01DX001 (ip), vehicle: saline 89 % of control | dose: 60.0 mg/kg/injection, schedule: Q01DX001 (ip), vehicle: saline 86 % of control

CC1C=CCC(C)(C)C1 (stereo not drawn)
inactive: [4] 95 % of control | [5] 100 % of control | dose: 200.0 mg/kg/injection, schedule: Q01DX009 (ip), vehicle: carboxymethylcellulose (CMC) 94 % of control | [6] 114 % of control | dose: 400.0 mg/kg/injection, schedule: Q01DX009 (ip), vehicle: carboxymethylcellulose (CMC) 90 % of control | dose: 600.0 mg/kg/injection, schedule: Q01DX009 (ip), vehicle: carboxymethylcellulose (CMC) 92 % of control

O=C(O)c1cc(-c2ccc3cc4c(cc3c2)OCO4)nc2ccccc12
inactive: dose: 75.0 mg/kg/injection, schedule: Q01DX001 (ip), vehicle: saline 97 % of control | dose: 150.0 mg/kg/injection, schedule: Q01DX001 (ip), vehicle: saline 101 % of control | dose: 300.0 mg/kg/injection, schedule: Q01DX001 (ip), vehicle: saline 93 % of control

COc1ccc(C(=O)OC(=O)c2ccc(OC)cc2)cc1
inactive: dose: 50.0 mg/kg/injection, schedule: Q01DX001 (ip), vehicle: carboxymethylcellulose (CMC) 110 % of control | [4] 104 % of control | [1] 113 % of control | dose: 100.0 mg/kg/injection, schedule: Q04DX003 (ip), vehicle: saline with Tween-80 102 % of control | [5] 108 % of control | [2] 116 % of control | dose: 200.0 mg/kg/injection, schedule: Q04DX003 (ip), vehicle: saline with Tween-80 102 % of control | [6] 112 % of control | [3] 110 % of control | dose: 400.0 mg/kg/injection, schedule: Q04DX003 (ip), vehicle: saline with Tween-80 101 % of control

COc1ccc(NC(=O)Oc2ccc(Cl)c(C)c2)c(OC)c1
inactive: dose: 100.0 mg/kg/injection, schedule: Q01DX009 (ip), vehicle: saline 118 % of control | dose: 200.0 mg/kg/injection, schedule: Q01DX009 (ip), vehicle: saline 114 % of control | dose: 400.0 mg/kg/injection, schedule: Q01DX009 (ip), vehicle: saline 108 % of control

CCC(=O)OC1(c2ccccc2)CCN(CCNc2ccccc2)CC1
inactive: dose: 20.0 mg/kg/injection, schedule: Q04DX003 (ip), vehicle: Klucel (hydroxypropylcellulose) (HPC) 100 % of control | dose: 40.0 mg/kg/injection, schedule: Q04DX003 (ip), vehicle: Klucel (hydroxypropylcellulose) (HPC) 103 % of control | dose: 80.0 mg/kg/injection, schedule: Q04DX003 (ip), vehicle: Klucel (hydroxypropylcellulose) (HPC) 105 % of control
